# Measurements published in patent US11534457B2, “Use of dextran sulfate” (priority 2017, dated 2022).
# Assays:
# [1] = tested on: human Schwann cells; experiment: PI staining (DNA content, cell cycle, cell numbers, apoptotic fraction), Acumen cytometry; format: cell-based; conditions: 0.01 and 0.1 mg/ml
# Method: The study aims were to evaluate the effect of LMW-DS on cell survival and expression of differentiation proteins in three cell types, cerebral cortical neurons, motor neurons and Schwann cells, using two concentrations 0.01 and 0.1 mg/ml of LMW-DS.
# Neurons were cultured as 40,000 cells per well and Schwann cells 3,000 cells per. Cells were treated after 24 hours. The number of cells per well depended on the growth phenotype, proliferative capacity, etc.
# Schwann cells growth medium was prepared by adding 10% of fetal bovine serum (FBS, PAA) to high-glucose DMEM and pre-warmed to 37° C. Cells were thawed in a 37° C. water bath for no longer than 2 min. […] Pellet was resuspended in 5 ml of medium and cells were counted with the Cellometer. […]
# LMW-DS was prepared in the culture media of choice for each cell line and added to the respective wells in the doses 0.01 and 0.1 mg/ml. For cell survival assays cells were analyzed after 24 and 48 hours in eight identical wells/dose/time point. Differentiation and protein expression assay was analyzed after 48 hours, also in octuplicates. […]
# The Acumen cytometer allows the direct cytometric analysis of attached cells without prior detachment. […] The protein content of the cells can also be directly measured and expressed as either ‘total protein content’ or ‘mean protein content’.
# [2] = tested on: Mouse motor neurons (Aruna); experiment: Gene expression array and pathway analysis, motor neurons; format: cell-based
# Method: For each cell line, n=8×25 cm^2 culture flasks were set up. Two flasks were harvested for each cell type on the day of treatment (24 hours after seeding). This represents the Day0 time point. From the remaining flasks, three flasks were treated with Control Medium and three were treated with Culture Medium (CM) containing LMW-DS to give a final concentration of 0.01 mg/ml. Cells from the treated flasks were collected after 48 hours. Therefore the collected data represent (a) untreated cells (Day0 Controls and Day2 Controls) and (b) cells treated with LMW-DS for 48 hours (Day2 LMW-DS treated).
# 25 cm^2 flasks were coated by adding 2 ml per flask of a solution of 50 μg/ml poly-d-lysine in Hank's balanced salt solution (HBSS) and incubating overnight at 37° C. in the dark. Flasks were washed with cell culture water and air-dried for 30 min in the dark. Flasks were coated by adding 1 ml per flask of a solution of 25 μg/ml laminin in phosphate-buffered saline (PBS) and incubating for 2 hour at 37° C. in the dark. The laminin flasks were washed with PBS three times before plating cells.
# The culture medium was prepared according to Table 5.
# Medium (see Table 5) was pre-warmed to 37° C. Cells were thawed in a 37° C. water bath for no longer than 2 min. 9 ml of media was gently added drop-wise. The cell suspension was mixed by inverting the tube carefully twice. The cells were counted with a Cellometer. The cells were centrifuged for 5 minutes at 200×g. Supernatant was removed (to the last 0.5 ml) and cells were gently resuspended by trituration. The cells from the 8 vials were mixed and distributed equally into the previously coated 25 cm^2 flasks (n=8). Cells were incubated at 37° C. with 5% CO2 for 24 hours before treatment.
# LMW-DS was provided at a stock concentration of 20 mg/ml and was kept in a temperature monitored refrigerator at 4° C. A fresh […]LMW-DS stock (1.0 mg/ml) was prepared in sterile DMEM-F12. The concentrated drug stock was sterile filtered and added to the respective culture media (19.6 ml CM and 0.4 ml LMW-DS stock solution). The Control was made using 19.6 ml CM and 0.4 ml of DMEM-F12. LMW-DS and CM were added to the respective flasks (5 ml each) to reach the 0.01 mg/ml concentration of LMW-DS in each dish with a total of 10 ml CM each.
# CM was aspirated into a clean and labelled 15 ml Falcon tube. The flasks (without culture medium) were placed into the −80° C. freezer for 30 minutes. The CM in the Falcon tubes were spun at 3000×g for 5 minutes. Supernatant was removed and the small pellet was re-suspended in 2.5 ml Trizol:Water (4:1) solution at room temperature (RT, […]).
# Two aliquots of 1 ml lysate was removed from each sample and 200 μl of chloroform was added to each (0.2 ml of chloroform per 1 ml of TRIzol Reagent used during the cell lysis step) and the tube was shaken vigorously. Samples were stored at RT for 2-3 minutes and subsequently centrifuged at 12,000×g for 15 minutes at 4° C.
# The expression data were downloaded into separate files for each cell line. The ‘Background corrected’ expression is the data from the “gProcessedSignal” of the arrays that is the result of the background signal extracted from the actual signal of the relevant probe. This is the most often used variable in array analysis. The background corrected signal was log 2 transformed for all samples for statistical analysis. To reduce the false discovery rate in the samples, the signals that were below ‘expression level’ were removed. The ‘below expression’ level was set at 5 for the log 2 transformed expression values.
# Based on the expression pattern of the Control probes on each array it was decided to carry out Median Centering for all arrays before analysis to reduce the variability of the results. […]
substance,measurement,setting,value
low molecular weight dextran sulfate [LMW-DS],fraction of apoptotic cells,[1],reduced
same,number of cells in the G2/M phase (PI content),[1],appeared to increase the number of cells in the G2/M phase
same,HtrA2,"[2]; 0.01 mg/ml, 48 h",inhibition
same,amyloid-β production,"[2]; 0.01 mg/ml, 48 h",preventing amyloid-β production
same,apoptosis pathway (F in FIG. 18),"[2]; 0.01 mg/ml, 48 h",preventing and inhibiting apoptosis
same,cellular attachment from expression patterns (neurons),"[2]; 0.01 mg/ml, 48 h",significant inhibition of cellular attachment
same,fatty acid oxidation,"[2]; 0.01 mg/ml, 48 h",inhibiting fatty acid oxidation
same,inhibition of glutamate production at baseline,"[2]; 0.01 mg/ml, 48 h",not affected
same,level of H2O2,"[2]; 0.01 mg/ml, 48 h",reduced
same,"number of genes differentially expressed, D0 control to the D2 LMW-DS treated samples (second statement)","[2]; 0.01 mg/ml, 48 h",425 genes
same,"number of genes differentially expressed, D0 control vs D2 LMW-DS treated","[2]; 0.01 mg/ml, 48 h",315 genes
same,number of genes: abolished nutrient effect / no effect,"[2]; 0.01 mg/ml, 48 h",177
same,number of genes: abolished nutrient effect / significant downregulation,"[2]; 0.01 mg/ml, 48 h",47
same,number of genes: abolished nutrient effect / significant upregulation,"[2]; 0.01 mg/ml, 48 h",40
same,number of genes: abolished nutrient effect / total,"[2]; 0.01 mg/ml, 48 h",264
same,number of genes: enhanced response to nutrients / significant downregulation,"[2]; 0.01 mg/ml, 48 h",36
same,number of genes: enhanced response to nutrients / significant upregulation,"[2]; 0.01 mg/ml, 48 h",103
same,number of genes: enhanced response to nutrients / total,"[2]; 0.01 mg/ml, 48 h",139
same,number of genes: new effect induced by LMW-DS / no effect,"[2]; 0.01 mg/ml, 48 h",108
same,number of genes: new effect induced by LMW-DS / significant downregulation,"[2]; 0.01 mg/ml, 48 h",375
same,number of genes: new effect induced by LMW-DS / significant upregulation,"[2]; 0.01 mg/ml, 48 h",71
same,number of genes: new effect induced by LMW-DS / total,"[2]; 0.01 mg/ml, 48 h",554
same,number of genes: not different from control / significant downregulation,"[2]; 0.01 mg/ml, 48 h",104
same,number of genes: not different from control / significant upregulation,"[2]; 0.01 mg/ml, 48 h",75
same,number of genes: not different from control / total,"[2]; 0.01 mg/ml, 48 h",179
same,number of genes: total / no effect,"[2]; 0.01 mg/ml, 48 h",285
same,number of genes: total / significant downregulation,"[2]; 0.01 mg/ml, 48 h",562
same,number of genes: total / significant upregulation,"[2]; 0.01 mg/ml, 48 h",289
same,number of genes: total / total,"[2]; 0.01 mg/ml, 48 h",1136
same,upstream regulator AGT: activation z-score,[2]; D0 to LMW-DS treatment,2.631
same,upstream regulator AGT: predicted activation state relative D2 control,[2]; D0 to LMW-DS treatment,Activated
same,upstream regulator BMP4: activation z-score,[2]; D0 to LMW-DS treatment,0.972
same,upstream regulator BMP4: predicted activation state relative D2 control,[2]; D0 to LMW-DS treatment,More activated relative to control
same,upstream regulator BMP6: activation z-score,[2]; D0 to LMW-DS treatment,0.13
same,upstream regulator BMP6: predicted activation state relative D2 control,[2]; D0 to LMW-DS treatment,More activated relative to control
same,upstream regulator BMP7: activation z-score,[2]; D0 to LMW-DS treatment,1.092
same,upstream regulator BMP7: predicted activation state relative D2 control,[2]; D0 to LMW-DS treatment,More activated relative to control
same,upstream regulator INHA: activation z-score,[2]; D0 to LMW-DS treatment,0.588
same,upstream regulator INHA: predicted activation state relative D2 control,[2]; D0 to LMW-DS treatment,More activated relative to control
